In ChEMBL document CHEMBL1157850, “Synthesis, spectral characterization and bioassay of 3,3'-(1,4-phenylene)-bis[2-alkoxycarbonyl-alkyl)-2-thio-benzoxa-phosphinines]” (Eur J Med Chem, 2010):
Converted amounts (≈) assume the structure as drawn. The source made the active and inactive calls. The calls are words filed in the database; no cut-off is given here.

Experiments:
Rattus norvegicus [1] = species: Rattus norvegicus; test: Antioxidant activity in Wistar albino rat assessed as inhibition of superoxide dismutase activity; assay type: functional, organism-based
Rattus norvegicus [2] = species: Rattus norvegicus; test: Antioxidant activity in Wistar albino rat assessed as lipid peroxidation level; assay type: functional, organism-based
Rattus norvegicus [3] = species: Rattus norvegicus; test: Antioxidant activity in Wistar albino rat assessed as inhibition of catalase activity; assay type: functional, organism-based
Rattus norvegicus [4] = species: Rattus norvegicus; test: Antioxidant activity in Wistar albino rat assessed as reduced glutathione level; assay type: functional
Rattus norvegicus [5] = species: Rattus norvegicus; test: Antioxidant activity in Wistar albino rat assessed as reduced glutathione activity; assay type: functional, organism-based
Rattus norvegicus [6] = species: Rattus norvegicus; test: Antioxidant activity in Wistar albino rat assessed as inhibition of lipid peroxidation; assay type: functional, organism-based
Rattus norvegicus [7] = species: Rattus norvegicus; test: Antioxidant activity in Wistar albino rat assessed as superoxide dismutase level; assay type: functional
Rattus norvegicus [8] = species: Rattus norvegicus; test: Antioxidant activity in Wistar albino rat assessed as catalase level; assay type: functional
[9] = Rattus norvegicus, Wistar albino, read-out: EC50

Compound | EC50 (Rattus norvegicus [1]; [9]) | Activity (Rattus norvegicus [2]) | EC50 (Rattus norvegicus [3]; [9]) | Activity (Rattus norvegicus [4]) | EC50 (Rattus norvegicus [5]; [9]) | EC50 (Rattus norvegicus [6]; [9]) | Activity (Rattus norvegicus [7]) | Activity (Rattus norvegicus [8]) | EC50 (Rattus norvegicus [1]) | EC50 (Rattus norvegicus [3]) | EC50 (Rattus norvegicus [5]) | EC50 (Rattus norvegicus [6])
Oc1ccccc1CNc1ccc(NCc2ccccc2O)cc1 | 4.58 µg/mL (≈ 14.3 µM) | 70.7 µg/mL | 6.05 µg/mL (≈ 18.9 µM) | 4.8 µg/mL | 5.42 µg/mL (≈ 16.9 µM) | 5.02 µg/mL (≈ 15.7 µM) | 26.27 µg/mL | 262.55 µg/mL | – | – | – | –
CCOC(=O)C(NP1(=S)Oc2ccccc2CN1c1ccc(N2Cc3ccccc3OP2(=S)NC(C(=O)OCC)c2ccccc2)cc1)c1ccccc1 (centres undefined) | 2.42 µg/mL (≈ 3.03 µM) | 70.5 µg/mL | 2.98 µg/mL (≈ 3.73 µM) | 4.12 µg/mL | 2.15 µg/mL (≈ 2.69 µM) | 2.57 µg/mL (≈ 3.22 µM) | 29.31 µg/mL | 270.32 µg/mL | – | – | – | –
COC(=O)C(Cc1c[nH]cn1)NP1(=S)Oc2ccccc2CN1c1ccc(N2Cc3ccccc3OP2(=S)NC(Cc2c[nH]cn2)C(=O)OC)cc1 (centres undefined) | 1.4 µg/mL (≈ 1.8 µM) | 77.2 µg/mL | 1.75 µg/mL (≈ 2.25 µM) | 3.66 µg/mL | 1.45 µg/mL (≈ 1.86 µM) | 1.56 µg/mL (≈ 2 µM) | 31.55 µg/mL | 282.28 µg/mL | – | – | – | –
CCOC(=O)C(C)NP1(=S)Oc2ccccc2CN1c1ccc(N2Cc3ccccc3OP2(=S)NC(C)C(=O)OCC)cc1 (centres undefined) | 2.98 µg/mL (≈ 4.42 µM) | 68.9 µg/mL | 3.38 µg/mL (≈ 5.01 µM) | 4.56 µg/mL | 2.68 µg/mL (≈ 3.97 µM) | 3.1 µg/mL (≈ 4.59 µM) | 28.14 µg/mL | 270.32 µg/mL | – | – | – | –
CCCC(NP1(=S)Oc2ccccc2CN1c1ccc(N2Cc3ccccc3OP2(=S)NC(CCC)C(=O)OC)cc1)C(=O)OC (centres undefined) | 2.31 µg/mL (≈ 3.29 µM) | 68.2 µg/mL | 3.98 µg/mL (≈ 5.66 µM) | 5.02 µg/mL | 2.66 µg/mL (≈ 3.78 µM) | 2.91 µg/mL (≈ 4.14 µM) | 27.8 µg/mL | 265.43 µg/mL | – | – | – | –
COC(=O)C(Cc1ccccc1)NP1(=S)Oc2ccccc2CN1c1ccc(N2Cc3ccccc3OP2(=S)NC(Cc2ccccc2)C(=O)OC)cc1 (centres undefined) | 1.98 µg/mL (≈ 2.48 µM) | 72.9 µg/mL | 2.2 µg/mL (≈ 2.75 µM) | 4.21 µg/mL | 2.05 µg/mL (≈ 2.57 µM) | 2.1 µg/mL (≈ 2.63 µM) | 29.42 µg/mL | 279.43 µg/mL | – | – | – | –
CCOC(=O)C1c2ccccc2CN1P1(=S)Oc2ccccc2CN1c1ccc(N2Cc3ccccc3OP2(=S)N2Cc3ccccc3C2C(=O)OCC)cc1 (centres undefined) | 1.55 µg/mL (≈ 1.88 µM) | 75.7 µg/mL | 1.68 µg/mL (≈ 2.04 µM) | 5.77 µg/mL | 1.49 µg/mL (≈ 1.81 µM) | 1.56 µg/mL (≈ 1.9 µM) | 30.59 µg/mL | 285.58 µg/mL | – | – | – | –
COC(=O)C(NP1(=S)Oc2ccccc2CN1c1ccc(N2Cc3ccccc3OP2(=S)NC(C(=O)OC)C(C)C)cc1)C(C)C (centres undefined) | 3.45 µg/mL (≈ 4.91 µM) | 72.3 µg/mL | 4.89 µg/mL (≈ 6.96 µM) | 4.73 µg/mL | 3.05 µg/mL (≈ 4.34 µM) | 4.1 µg/mL (≈ 5.83 µM) | 27.86 µg/mL | 277.59 µg/mL | – | – | – | –
COC(=O)C(Cc1c[nH]c2ccccc12)NP1(=S)Oc2ccccc2CN1c1ccc(N2Cc3ccccc3OP2(=S)NC(Cc2c[nH]c3ccccc23)C(=O)OC)cc1 (centres undefined) | 1.39 µg/mL (≈ 1.59 µM) | 76.2 µg/mL | 1.98 µg/mL (≈ 2.26 µM) | 5.84 µg/mL | 1.45 µg/mL (≈ 1.65 µM) | 1.82 µg/mL (≈ 2.08 µM) | 30.29 µg/mL | 280.48 µg/mL | – | – | – | –
COC(=O)C(C)NP1(=S)Oc2ccccc2CN1c1ccc(N2Cc3ccccc3OP2(=S)NC(C)C(=O)OC)cc1 (centres undefined) | 3.56 µg/mL (≈ 5.51 µM) | 72.2 µg/mL | 5.28 µg/mL (≈ 8.16 µM) | 3.56 µg/mL | 3.5 µg/mL (≈ 5.41 µM) | 4.25 µg/mL (≈ 6.57 µM) | 27.02 µg/mL | 271.27 µg/mL | – | – | – | –
VITAMIN E [listing 1 of 2 here] | – | – | – | – | – | – | – | – | 1.03 µg/mL | 1.48 µg/mL | 0.99 µg/mL | 1.22 µg/mL
O=C1O[C@H]([C@@H](O)CO)C(O)=C1O [ASCORBIC ACID] | 0.99 µg/mL (≈ 5.62 µM) | 88.1 µg/mL | 1.37 µg/mL (≈ 7.78 µM) | 31.34 µg/mL | 0.98 µg/mL (≈ 5.56 µM) | 1.02 µg/mL (≈ 5.79 µM) | inactive | 385.46 µg/mL | – | – | – | –
CCCC(NP1(=S)Oc2ccccc2CN1c1ccc(N2Cc3ccccc3OP2(=S)NC(CCC)C(=O)OCC)cc1)C(=O)OCC (centres undefined) | 2.33 µg/mL (≈ 3.19 µM) | 70.2 µg/mL | 3.23 µg/mL (≈ 4.42 µM) | 4.23 µg/mL | 2.5 µg/mL (≈ 3.42 µM) | 2.59 µg/mL (≈ 3.54 µM) | 28.55 µg/mL | 273.32 µg/mL | – | – | – | –
VITAMIN E [listing 2 of 2 here] | – | 82.8 µg/mL | – | 43.6 µg/mL | – | – | 32.3 µg/mL | 403 µg/mL | – | – | – | –
